According to article PMC12775819, “Optimizing PSMA-617-based inhibitors through charged linker modifications: Insights into structure-activity relationships” (Theranostics, 2026):
Non-standard residues stand in square brackets, D forms with d. Residues, ends and D or L forms follow the SMILES beside them. *: point of attachment. DOTA = O=C(O)CN1CCN(CC(=O)O)CCN(CC(=O)*)CCN(CC(=O)O)CC1; EuK = O=C(O)CC[C@H](NC(=O)N[C@@H](CCCCN*)C(=O)O)C(=O)O; 2Nal = N[C@@H](Cc1ccc2ccccc2c1)C(=O)O; Trx = NC[C@H]1CC[C@H](C(=O)O)CC1

Key:
[1] = Static small-animal PET imaging 1 h and 2 h p.i.; settings: male, BALB/c nu/nu, mouse, iv, 500 pmol, total radioactivity; for SUV at 1 h / SUV at 2 h: 68Ga-labeled, 0.5 nmol i.v., n = 1, SD from VOIs; for SUV at 1 h: static PET 1 h p.i.; for SUV at 2 h: static PET 2 h p.i.
[2] = Dynamic small-animal PET imaging (0 - 60 min); settings: male, BALB/c nu/nu, mouse, tumor (LNCaP xenograft), iv, 500 pmol, total radioactivity
[3] = tumor (LNCaP xenograft), SUV tumor

SMILES: O=C(O)CC[C@H](NC(=O)N[C@@H](CCCCNC(=O)[C@H](Cc1ccc2ccccc2c1)NC(=O)[C@H]1CC[C@H](CNC(=O)[C@H](CCC(=O)O)NC(=O)[C@H](Cc2c[nH]cn2)NC(=O)[C@H](CCC(=O)O)NC(=O)[C@H](Cc2c[nH]cn2)NC(=O)[C@H](CCC(=O)O)NC(=O)[C@H](Cc2c[nH]cn2)NC(=O)CN2CCN(CC(=O)O)CCN(CC(=O)O)CCN(CC(=O)O)CC2)CC1)C(=O)O)C(=O)O [[^68Ga]Ga-PS4, metal not drawn] ({DOTA}-HEHEHE[Trx][2Nal]-EuK)
- SUV at 1 h ([1]; kidneys, SUV kidneys): 3.81 ± 0.15 SUV
- SUV at 2 h ([1]; kidneys, SUV kidneys): 2.77 ± 0.2 SUV
- SUV at 1 h [1, 3]: 1.15 ± 0.04 SUV
- SUV at 2 h [1, 3]: 1.07 ± 0.09 SUV
- tissue to tissue ratio at 1 h ([1]; tumor / muscle): 10.5 ± 0.2
- SUV at 1 h [2]: 1.07 SUV
